Among the data in US6689754B1, “Heterocyclic glycyl β-alanine derivatives” (G. D. Searle & Co., priority 1998, dated 2004) are IC50 values, retold here.

Structures can show the parent of a compound that is named as a salt.

For test [1], the target named is T1, Human vitronectin receptor (αvβ3) (Homo sapiens, UniProt P05106+P06756).
T1 construct: Human vitronectin receptor (αvβ3) was purified from human placenta; from tissue; host or cells: human placenta
The test can be described thus: Vitronectin adhesion assay: solid phase receptor assay, competition with biotinylated vitronectin. Conditions: purified human vitronectin receptor; 1 nM biotinylated vitronectin. Type of test: binding. The protocol: Vitronectin Adhesion Assay
Human vitronectin receptor (αvβ3) was purified from human placenta as previously described [Pytela et al., Methods in Enzymology, 144:475-489 (1987)]. Human vitronectin was purified from fresh frozen plasma as previously described [Yatohgo et al., Cell Structure and Function, 13:281-292 (1988)]. Biotinylated human vitronectin was prepared by coupling NHS-biotin from Pierce Chemical Company (Rockford, Ill.) to purified vitronectin as previously described [Charo et al., J. Biol. Chem., 266(3):1415-1421 (1991)]. Assay buffer, OPD substrate tablets, and RIA grade BSA were obtained from Sigma (St. Louis, Mo.). Anti-biotin antibody was obtained from Calbiochem (La Jolla, Calif.). Linbro microtiter plates were obtained from Flow Labs (McLean, Va.). ADP reagent was obtained from Sigma (St. Louis, Mo.).
This assay was essentially the same as previously reported [Niiya et al., Blood, 70:475-483 (1987)]. The purified human vitronectin receptor (αvβ3) was diluted from stock solutions to 1.0 μg/mL in Tris-buffered saline containing 1.0 mM Ca^++, Mg^++, and Mn^++, pH 7.4 (TBS^+++). The diluted receptor was immediately transferred to Linbro microtiter plates at 100 μL/well (100 ng receptor/well). The plates were sealed and incubated overnight at 4° C. to allow the receptor to bind to the wells. All remaining steps were at room temperature. The assay plates were emptied and 200 μL of 1% RIA grade BSA in TBS^+++ (TBS^+++/BSA) were added to block exposed plastic surfaces. Following a 2 hour incubation, the assay plates were washed with TBS^+++ using a 96 well plate washer. Logarithmic serial dilution of the test compound and controls were made starting at a stock concentration of 2 mM and using 2 nM biotinylated vitronectin in TBS^+++/BSA as the diluent. This premixing of labeled ligand with test (or control) ligand, and subsequent transfer of 50 μL aliquots to the assay plate was carried out with a CETUS Propette robot; the final concentration of the labeled ligand was 1 nM and the highest concentration of test compound was 1.0×10^−4 M. The competition occurred for two hours after which all wells were washed with a plate washer as before. Affinity purified horseradish peroxidase labeled goat anti-biotin antibody was diluted 1:3000 in TBS^+++/BSA and 125 μL were added to each well. After 30 minutes, the plates were washed and incubated with OPD/H2O2 substrate in 100 mM/L Citrate buffer, pH 5.0. The plate was read with a microtiter plate reader at a wavelength of 450 nm and when the maximum-binding control wells reached an absorbance of about 1.0, the final A450 were recorded for analysis. The data were analyzed using a macro written for use with the EXCELJ spreadsheet program. The mean, standard deviation, and % CV were determined for duplicate concentrations. The mean A450 values were normalized to the mean of four maximum-binding controls (no competitor added)(B-MAX). The normalized values were subjected to a four parameter curve fit algorithm [Rodbard et al., Int.

The target of test [2] is T2, Human fibrinogen receptor IIb/IIIa (Homo sapiens, UniProt P05106+P08514).
T2 construct: Human fibrinogen receptor ([…]) was purified from outdated platelets; from tissue; host or cells: outdated human platelets
In words: Purified IIb/IIIa receptor assay: solid phase receptor assay, competition with biotinylated vitronectin. Type of test: binding. The settings on record: 1 nM biotinylated vitronectin. An excerpt:
Purified IIb/IIIa Receptor Assay
Human fibrinogen receptor ([…]) was purified from outdated platelets. (Pytela, R., Pierschbacher, M. D., Argraves, S., Suzuki, S., and Rouslahti, E. “Arginine-Glycine-Aspartic acid adhesion receptors”, Methods in Enzymology 144(1987):475-489.) Human vitronectin was purified from fresh frozen plasma as described in Yatohgo, T., Izumi, M., Kashiwagi, H., and Hayashi, M., “Novel purification of vitronectin from human plasma by heparin affinity chromatography,” Cell Structure and Function 13(1988):281-292. Biotinylated human vitronectin was prepared by coupling NHS-biotin from Pierce Chemical Company (Rockford, Ill.) to purified vitronectin as previously described. (Charo, I. F., Nannizzi, L., Phillips, D. R., Hsu, M. A., Scarborough, R. M., “Inhibition of fibrinogen binding to GP IIb/IIIa by a GP IIIa peptide”, J. Biol. Chem. 266(3)(1991): 1415-1421.) Assay buffer, OPD substrate tablets, and RIA grade BSA were obtained from Sigma (St. Louis, Mo.). Anti-biotin antibody was obtained from Calbiochem (La Jolla, Calif.). Linbro microtiter plates were obtained from Flow Labs (McLean, Vs.). ADP reagent was obtained from Sigma (St. Louis, Mo.).
This assay is essentially the same reported in Niiya, K., Hodson, E., Bader, R., Byers-Ward, V. Koziol, J. A., Plow, E. F. and Ruggeri, Z. M., “Increased surface expression of the membrane glycoprotein IIb/IIIa complex induced by platelet activation: Relationships to the binding of fibrinogen and platelet aggregation”, Blood 70(1987):475-483. The purified human fibrinogen receptor ([…]) was diluted from stock solutions to 1.0 μg/mL in Tris-buffered saline containing 1.0 mM Ca^++, Mg^++, and Mn^++, pH 7.4 (TBS^+++). The diluted receptor was immediately transferred to Linbro microtiter plates at 100 μL/well (100 ng receptor/well). The plates were sealed and incubated overnight at 4° C. to allow the receptor to bind to the wells. All remaining Steps were at room temperature. The assay plates were emptied and 200 μL of 1% RIA grade BSA in TBS^+++ (TBS^+++/BSA) were added to block exposed plastic surfaces. Following a 2 hour incubation, the assay plates were washed with TBS^+++ using a 96 well plate washer. Logarithmic serial dilution of the test compound and controls were made starting at a stock concentration of 2 mM and using 2 nM biotinylated vitronectin in TBS^+++/BSA as the diluent. This premixing of labeled ligand with test (or control) ligand, and subsequent transfer of 50 μL aliquots to the assay plate was carried out with a CETUS Propette robot; the final concentration of the labeled ligand was 1 nM and the highest concentration of test compound was 1.0×10^−4 M. The competition occurred for two hours after which all wells were washed with a plate washer as before. Affinity purified horseradish peroxidase labeled goat anti-biotin antibody was diluted 1:3000 in TBS^+++/BSA and 125 μL were added to each well. After 30 minutes, the plates were washed and incubated with […] substrate in 100 mM/L citrate buffer, pH 5.0. The plate was read with a microtiter plate reader at a wavelength of 450 nm and when the maximum-binding control wells reached an absorbance of about 1.0, the final A450 were recorded for analysis. The data were analyzed using a macro written for use with the EXCELJ spreadsheet program. The mean, standard deviation, and % CV were determined for duplicate concentrations. The mean A450 values were normalized to the mean of four maximum-binding controls (no competitor added)(B-MAX). The normalized values were subjected to a four parameter curve fit algorithm, [Robard et al., Int. Atomic Energy Agency.

As for `O=C(O)CC(NC(=O)CNC(=O)c1c[nH]c(=O)c(NC2=NCCN2)c1)c1cc(Cl)cc(Cl)c1O` (stereo not drawn) [Example 20, N-[[5-[(4,5,-dihydro-1H-imidazol-2-yl)amino]-1,6-dihydro-6-oxo-3-pyridinyl]-carbonyl]glycyl-3-(3,5-dichloro-2-hydroxyphenyl)-β-alanine, (trifluoroacetate) salt], the figures for the IC50 in test [1] and in test [2] were 0.32 nM and 2020 nM, respectively.
As to `O=C(O)C[C@H](NC(=O)CNC(=O)c1c[nH]c(=O)c(NC2=NCC(O)CN2)c1)c1cc(Cl)cc(Cl)c1O` (stereo partly drawn) [Example 21, (3S)-N-[[1,6-dihydro-6-oxo-5-[(1,4,5,6-tetrahydro-5-hydroxy-2-pyrimidinyl)amino]-3-pyridinyl]carbonyl]glycyl-3-(3,5-dichloro-2-hydroxyphenyl)-β-alanine, trifluoroacetate salt], the values for the 50% inhibitory concentration (IC50) in test [1] and in test [2] were 0.2 nM and 551 nM, respectively.
The like results for `COc1ncc(N=C2NCCN2)cc1C(=O)NCC(=O)NC(CC(=O)O)c1cc(Cl)cc(Cl)c1O` (stereo not drawn) [Example 22, N-[[(4,5,-dihydro-1H-imidazol-2-yl)amino]-2-methoxy-3-pyridinyl]carbonyl]glycyl-3-(3,5-dichloro-2-hydroxyphenyl)-β-alanine, (trifluoroacetate) salt] were, in that order, 6.96 nM and 1710 nM.
Regarding `O=C(O)CC(NC(=O)CNC(=O)c1cc(N=C2NCCN2)c[nH]c1=O)c1cc(Cl)cc(Cl)c1O` (stereo not drawn) [Example 23, N-[[5-(4,5,-dihydro-1H-imidazol-2-yl)amino]-1,2-dihydro-2-oxo-3-pyridinyl]-carbonyl]glycyl-3-(3,5-dichloro-2-hydroxyphenyl)-β-alanine, (trifluoroacetate) salt], the IC50 in test [1] is 3600 nM; in test [2], 10100 nM.
For `Cn1nc(C(=O)NCC(=O)NC(CC(=O)O)c2cc(Cl)cc(Cl)c2O)cc1NC1=NCCN1` (stereo not drawn) [Example 24, N-[[(4,5-dihydro-1H-imidazol-2-yl)amino]-1-methyl-1H-pyrazol-3yl]carbonyl]glycyl-3-(3,5-dichloro-2-hydroxyphenyl)-β-alanine, (trifluoroacetate) salt], the concentration for half-maximal inhibition (IC50) in test [1] is 91200 nM; in test [2], 15800 nM.
Take `O=C(O)CC(NC(=O)CNC(=O)c1cc(NC2=NCCN2)[nH]n1)c1cc(Cl)cc(Cl)c1O` (stereo not drawn) [Example 25, N-[[5-[(4,5-dihydro-1H-imidazol-2-yl)amino]-1H-pyrazol-3-yl]carbonyl]-glycyl-3-(3,5-dichloro-2-hydroxyphenyl)-β-alanine, (trifluoroacetate) salt]: the IC50 in test [1] worked out at 1870 nM; in test [2], 3910 nM.
With `O=C(O)C[C@H](NC(=O)CNC(=O)c1cncc(NC2=NCC(O)CN2)c1)c1cc(Br)cc(I)c1O` (stereo partly shown) [Example 26], the IC50 in test [1] is 0.71 nM; in test [2] it was 831 nM.
Turning to `COc1ncc(C(=O)NCC(=O)N[C@@H](CC(=O)O)c2cc(Cl)cc(Cl)c2O)cc1NC1=NCC(O)CN1` (stereo partly shown) [Example 27], the IC50 in test [1] stood at 0.26 nM; in test [2], 482 nM.
Regarding `COCCOCn1cc(C(=O)NCC(=O)NC(CC(=O)O)c2cc(Br)cc(Br)c2O)cc(NC2=NCC(O)CN2)c1=O` (stereo not shown) [Example 28], the IC50 in test [1] was 0.43 nM; in test [2], 984 nM.
The like results for `O=C(O)CC(NC(=O)CNC(=O)c1c[nH]c(=O)c(NC2=NCC(O)CN2)c1)c1cc(Br)cc(Br)c1O` (stereo not shown) [Example 29] were, in that order, 0.46 nM and 1380 nM.
Take `COc1cc(NC2=NCC(O)CN2)nc(C(=O)NCC(=O)N[C@@H](CC(=O)O)c2cc(Cl)cc(Br)c2O)c1` (stereo partly shown) [Example 30]: the IC50 was 155 nM in test [1] and 29.5 nM in test [2].
As for `O=C(O)C[C@H](NC(=O)CNC(=O)c1cc(=O)cc(NC2=NCC(O)CN2)[nH]1)c1cc(Cl)cc(Br)c1O` (stereo partly shown) [Example 31], the results for the concentration for half-maximal inhibition (IC50) in test [1] and in test [2] were 3940 nM and 1800 nM, respectively.
As for `O=C(O)CC(NC(=O)CNC(=O)c1cncc(NC2=NCC(O)CN2)c1)c1cc(Cl)cc(Br)c1O` (stereo not shown) [Example 32], the concentration for half-maximal inhibition (IC50) amounted to 2.1 nM in test [1] and 49 nM in test [2].
In the case of `O=C(O)C[C@H](NC(=O)CNC(=O)c1c[nH]c(=O)c(NC2=NCC(O)CN2)c1)c1cc(Cl)cc(Br)c1O` (stereo partly shown) [Example 33], the IC50 stood at 0.2 nM in test [1] and 520 nM in test [2].
As for `O=C(O)C[C@H](NC(=O)CNC(=O)c1c[nH]c(=O)c(NC2=NCC(O)CN2)c1)c1cc(Br)cc(Cl)c1O` (stereo partly shown) [Example 34], the IC50 in test [1] worked out at 0.34 nM; in test [2], 1200 nM.
Consider `O=C(O)C[C@H](NC(=O)CNC(=O)c1c[nH]c(=O)c(NC2=NCC(O)CN2)c1)c1cc(Br)cc(Br)c1` (stereo partly shown) [Example 35], for which the IC50 in test [1] was 0.14 nM; in test [2], 340 nM.
For `O=C(O)C[C@H](NC(=O)CNC(=O)c1c[nH]c(=O)c(NC2=NCCN2)c1)c1cc(Br)cc(Br)c1O` [Example 36] the same measures were 1.13 nM and 970 nM.
In the case of `O=C(O)C[C@H](NC(=O)CNC(=O)c1csc(NC2=NCC(O)CN2)c1)c1cc(Cl)cc(Cl)c1O` (stereo partly shown) [Example 37], the IC50 in test [1] was determined as 63.8 nM; in test [2], 267 nM.
For `Cn1cc(NC2=NCC(O)CN2)cc1C(=O)NCC(=O)N[C@@H](CC(=O)O)c1cc(Cl)cc(Cl)c1O` (stereo partly shown) [Example 38], the IC50 in test [1] was determined as 278 nM; in test [2] it was 115 nM.
For `O=C(O)C[C@H](NC(=O)CNC(=O)c1cscc1CNC1=NCC(O)CN1)c1cc(Cl)cc(Cl)c1O` (stereo partly shown) [Example 39] the same measures were 1920 nM and 2460 nM.

The IC50 is the point on the concentration scale where inhibition reaches its midpoint. High values mean weaker potency, low ones greater potency.
